pKd: −log10 of the molar value.
Biological target: T1, nAChRs (nicotinic acetylcholine receptors) in G. pulex membrane protein extract
T1 construct: gene nAChR alpha; native whole-animal crude membrane protein pellet (43,000g)
Experiment: equilibrium binding to membrane protein, unlabelled ligand, ultracentrifugation, online-SPE LC-HRMS/MS
Design: species or system Gammarus pulex
Conditions: 10 mM Tris-HCl pH 7.4, 23 °C, 2 h; one-site specific binding model; no displacement control described; read-out: best fit
From the text: equilibrium binding to membrane protein, unlabelled ligand, ultracentrifugation, online-SPE LC-HRMS/MS on nAChRs (nicotinic acetylcholine receptors) in G. pulex membrane protein extract

N#C/N=C1\SCCN1Cc1ccc(Cl)nc1 [thiacloprid]
pKd: 9.39
